ChEMBL document CHEMBL5390201, “The Natural Alkaloid (-)-N-Hydroxyapiosporamide Suppresses Colorectal Tumor Progression as an NF-κB Pathway Inhibitor by Targeting the TAK1-TRAF6 Complex” (J Nat Prod, 2023)
Active and inactive are the calls of the source.

What was measured:
Assay type in all cases: functional, organism-based
Mus musculus [1] = assay: In vivo inhibition of NFkappaB activation in LPS-induced BALB/c mouse model of endotoxin shock assessed as inhibition of IL6 mRNA expression in liver at 5 mg/kg, ip pretreated for 4 hrs followed by LPS stimulation for 1 hr by RT-PCR analysis; settings: time 5.0 hrs
HT-29 = assay: Antitumor activity against human HT-29 cells xenografted in athymic nude BALB/c mouse assessed as induction of autophagy by measuring increase in LC3B expression in tumor at 15 mg/kg, ip administered every other day and measured after 14 days by immunohistochemistry analysis; settings: time 14.0 day
Mus musculus [2] = assay: Anti-inflammatory activity in AOM/DSS-induced BALB/c mouse model inflammatory bowel disease assessed as reduction in tumor load at 5 to 10 mg/kg, ip pretreated with AOM for 7 days further replaced with DSS for 7 days and repeated for 2 times followed by every 2 days compound treatment for […] starting from day 50 and measured once a week; settings: dose 5-10 mg/kg, time 21.0 day

C[C@@H]1CC[C@H]2[C@H](C(=O)c3c(O)c([C@@]4(O)CC[C@@H](O)[C@H]5O[C@H]54)cn(O)c3=O)[C@H](C)C=C[C@@H]2C1
active: inhibition (Mus musculus [1]) | Activity (HT-29) | Activity (Mus musculus [2])
